Experimental data as given in patent US20070224321A1, “Baked Goods Comprising High-Potency Sweetener” (THE COCA-COLA COMPANY, priority 2005, published 2007).

Format: physicochemical
Description: A solution of rebaudioside A (>97% pure by HPLC ) was prepared in double distilled water (12.5 gm in 50 mL, 25% concentration) by stirring the mixture at 40° C. for 5 minutes. An amorphous form of_rebaudioside A was formed by immediately using the clear solution for spray drying with the Lab-Plant spray drier SD-04 instrument (Lab-Plant Ltd., West Yorkshire, U.K.). The solution was fed through the feed pump into the nozzle atomizer which atomized it into a spray of droplets with the help of a constant flow of nitrogen/air. […] This dry powder (11-12 g, H2O 6.74%) was discharged continuously from the drying chamber and was collected in a bottle.

solubility in water at room temperature: > 35.0%
Substance: rebaudioside A [Form 4]
